# Test results taken from US10669272B2, “Substituted naphthyridinone compounds useful as T cell activators” (BRISTOL-MYERS SQUIBB COMPANY, priority 2018, dated 2020).
# pIC50: −log10 of the molar value. Structures can show the parent of a compound that is named as a salt. Where two headings read alike, the source gives them in different places.
# Experiments:
# human DGKα = biological target: T1, human DGKα (Homo sapiens, UniProt P23743); experiment: DGKα LIPGLO assay (extruded liposome substrate), in vitro DGK inhibition; assay type: biochemical; settings: read-out: DGKa LIPGLO IC50
# T1 construct: TVMV protease cleavage site (C); Hexa-His (C); made in house; host or cells: Sf9 insect cells (baculovirus, Bac-to-Bac)
# human DGKζ = biological target: T2, human DGKζ (Homo sapiens, UniProt Q13574); experiment: DGKζ LIPGLO assay (extruded liposome substrate), in vitro DGK inhibition; assay type: biochemical; settings: read-out: DGKz LIPGLO IC50
# T2 construct: TVMV protease cleavage site (C); Hexa-His (C); made in house; host or cells: Sf9 insect cells (baculovirus, Bac-to-Bac)
# T2 sequence (Q13574 with tags, fused parts or gaps isoform Q13574-4): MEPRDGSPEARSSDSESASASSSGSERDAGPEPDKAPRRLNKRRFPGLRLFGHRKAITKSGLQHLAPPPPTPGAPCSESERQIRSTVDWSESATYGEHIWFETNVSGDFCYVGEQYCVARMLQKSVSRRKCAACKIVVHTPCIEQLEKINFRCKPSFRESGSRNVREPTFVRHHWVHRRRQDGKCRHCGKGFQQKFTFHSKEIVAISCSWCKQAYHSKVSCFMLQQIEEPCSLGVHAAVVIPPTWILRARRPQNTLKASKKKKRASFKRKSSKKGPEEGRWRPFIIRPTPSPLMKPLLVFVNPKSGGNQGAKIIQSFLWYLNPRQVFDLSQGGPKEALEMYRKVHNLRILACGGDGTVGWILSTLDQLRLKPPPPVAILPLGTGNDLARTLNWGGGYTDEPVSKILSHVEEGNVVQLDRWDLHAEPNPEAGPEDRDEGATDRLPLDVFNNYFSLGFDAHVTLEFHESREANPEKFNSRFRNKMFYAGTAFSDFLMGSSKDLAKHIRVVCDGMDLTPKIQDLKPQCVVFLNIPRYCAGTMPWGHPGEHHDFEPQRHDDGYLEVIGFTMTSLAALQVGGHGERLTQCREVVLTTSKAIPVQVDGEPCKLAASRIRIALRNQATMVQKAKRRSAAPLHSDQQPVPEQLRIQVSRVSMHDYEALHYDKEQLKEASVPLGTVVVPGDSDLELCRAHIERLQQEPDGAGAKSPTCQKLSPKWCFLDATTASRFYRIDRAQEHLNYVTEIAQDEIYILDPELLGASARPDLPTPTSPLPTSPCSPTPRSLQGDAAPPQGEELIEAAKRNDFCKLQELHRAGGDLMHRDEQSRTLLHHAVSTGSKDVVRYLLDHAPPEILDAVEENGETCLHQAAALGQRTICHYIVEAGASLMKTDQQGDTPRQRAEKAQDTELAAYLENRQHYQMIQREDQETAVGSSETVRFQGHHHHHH
# T1 sequence (P23743 with tags, fused parts or gaps): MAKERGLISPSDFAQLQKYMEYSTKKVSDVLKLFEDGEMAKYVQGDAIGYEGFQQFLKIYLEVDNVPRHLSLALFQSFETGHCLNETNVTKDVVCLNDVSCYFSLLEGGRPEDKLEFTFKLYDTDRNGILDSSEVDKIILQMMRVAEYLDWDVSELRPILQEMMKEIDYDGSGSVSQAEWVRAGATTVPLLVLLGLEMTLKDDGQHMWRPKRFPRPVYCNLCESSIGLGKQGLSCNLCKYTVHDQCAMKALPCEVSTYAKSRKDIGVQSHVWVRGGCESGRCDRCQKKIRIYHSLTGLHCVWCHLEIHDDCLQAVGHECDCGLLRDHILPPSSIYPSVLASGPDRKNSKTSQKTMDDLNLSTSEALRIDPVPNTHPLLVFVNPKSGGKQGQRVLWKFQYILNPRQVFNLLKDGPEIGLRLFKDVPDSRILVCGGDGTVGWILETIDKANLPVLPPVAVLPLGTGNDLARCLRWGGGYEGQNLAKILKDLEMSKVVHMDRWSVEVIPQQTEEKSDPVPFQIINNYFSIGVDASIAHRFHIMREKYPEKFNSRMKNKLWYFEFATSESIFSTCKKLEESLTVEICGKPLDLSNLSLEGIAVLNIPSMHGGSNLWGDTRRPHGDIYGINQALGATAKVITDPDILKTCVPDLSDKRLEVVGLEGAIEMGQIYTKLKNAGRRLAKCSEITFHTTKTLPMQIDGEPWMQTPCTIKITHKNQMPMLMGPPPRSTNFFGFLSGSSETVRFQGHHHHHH
SMILES,pIC50 (human DGKα; liposome (LIPGLO) assay),pIC50 (human DGKζ; liposome (LIPGLO) assay),pIC50 (human DGKα; DGKα liposome (LIPGLO) assay),pIC50 (human DGKζ; DGKζ liposome (LIPGLO) assay)
"Cn1c(=O)cc(N2CCN(C(c3ccc(F)cc3)c3ccc(F)cc3)CC2CF)c2nc(C#N)ccc21 (racemic) [Example 149, 8-(4-(bis(4-fluorophenyl)methyl)-2-(fluoromethyl)piperazin-1-yl)-5-methyl-6-oxo-5,6-dihydro-1,5-naphthyridine-2-carbonitrile]",4.46,4.68,,
"C[C@@H]1CN(c2cc(=O)n(C)c3ccc(C#N)nc23)[C@@H](C)CN1C(CF)c1ccc(F)cc1 (mixture of isomers) [Example 556, 8-[(2S,5R)-4-[2-fluoro-1-(4-fluorophenyl)ethyl]-2,5-dimethylpiperazin-1-yl]-5-methyl-6-oxo-5,6-dihydro-1,5-naphthyridine-2-carbonitrile]",5.59,5.22,,
"Cn1c(=O)c(C#N)c(N2CCN(C(c3ccc(F)cc3)c3ccc(F)cc3)C(C(N)=O)C2)c2nc(C#N)ccc21 (single isomer, unassigned) [Example 58, 1-(bis (4-fluorophenyl)methyl)-4-(3,6-dicyano-1-methyl-2-oxo-1,2-dihydro-1,5-naphthyridin-4-yl)piperazine-2-carboxamide]",5.14,3.74,,
"CC(C)C(C)(F)C1CN(c2cc(=O)n(C)c3ccc(C#N)nc23)CCN1C(c1ccc(F)cc1)c1ccc(F)cc1 (single isomer, unassigned) [Example 91, 8-(4-(bis(4-fluorophenyl)methyl)-3-(2-fluoro-3-methylbutan-2-yl)piperazin-1-yl)-5-methyl-6-oxo-5,6-dihydro-1,5-naphthyridine-2-carbonitrile, TFA]",3.62,3.62,,
"COc1cc(F)ccc1C(c1ccc(F)cc1)N1C[C@H](C)N(c2c([N+](=O)[O-])c(=O)n(C)c3ccc(C#N)nc23)C[C@H]1C (single isomer, unassigned) [Example 121]",3.62,4.28,,
"Cn1c(=O)cc(N2CCN(C(c3ccc(F)cc3)c3ccc(F)cc3)CC2C(N)=O)c2nc(C#N)ccc21 (single isomer, unassigned) [Example 141, 4-(bis(4-fluorophenyl)methyl)-1-(6-cyano-1-methyl-2-oxo-1,2-dihydro-1,5-naphthyridin-4-yl)piperazine-2-carboxamide]",3.62,3.70,,
"Cn1c(=O)cc(N2CC(C3CC3)N(C(c3ccc(F)cc3)c3ccc(F)cc3)CC2C2CC2)c2nc(C#N)ccc21 (single isomer, unassigned) [Example 152, 8-(4-(bis(4-fluorophenyl)methyl)-2,5-dicyclopropylpiperazin-1-yl)-5-methyl-6-oxo-5,6-dihydro-1,5-naphthyridine-2-carbonitrile]",5.11,3.62,,
"Cn1c(=O)cc(N2CC(C3CC3)N(C(c3ccc(F)cc3)c3ccc(F)cc3)CC2C2CC2)c2nc(C#N)ccc21 (single isomer, unassigned) [Example 153, 8-(4-(bis(4-fluorophenyl)methyl)-2,5-dicyclopropylpiperazin-1-yl)-5-methyl-6-oxo-5,6-dihydro-1,5-naphthyridine-2-carbonitrile]",3.62,3.62,,
"C[C@@H]1CN(c2c(C#N)c(=O)n(C)c3ccc(C#N)nc23)CCN1C(c1ccc(F)cc1)c1ccncn1 (single isomer, unassigned) [Example 312]",6.15,5.47,,
"C[C@@H]1CN(c2c(C#N)c(=O)n(C)c3ccc(C#N)nc23)CCN1C(c1ccc(F)cc1)c1ccncn1 (single isomer, unassigned) [Example 313]",5.64,5.32,,
"C[C@@H]1CN(c2c(C#N)c(=O)n(C)c3ccc(C#N)nc23)CCN1C(c1ccc(Cl)cc1)c1ccncn1 (single isomer, unassigned) [Example 320]",5.03,4.55,,
"Cc1ccnc(C(c2ccc(Cl)cc2)N2C[C@H](C)N(c3cc(=O)n(C)c4ccc(C#N)nc34)C[C@H]2C)c1 (single isomer, unassigned) [Example 364]",5.80,5.41,,
"C[C@@H]1CN(c2cc(=O)n(C)c3ccc(C#N)nc23)[C@@H](C)CN1C(c1cccc(F)c1)c1ccc(C(F)(F)F)cn1 (single isomer, unassigned) [Example 371]",5.52,5.68,,
"C[C@@H]1CN(c2cc(=O)n(C)c3ccc(C#N)nc23)[C@@H](C)CN1C(c1cccc(F)c1)c1ccccn1 (single isomer, unassigned) [Example 374]",6.24,5.42,,
"C[C@@H]1CN(c2cc(=O)n(C)c3ccc(C#N)nc23)[C@@H](C)CN1C(c1ccc(F)cc1)c1cccnn1 (single isomer, unassigned) [Example 384]",5.82,5.16,,
"C[C@@H]1CN(c2cc(=O)n(C)c3ccc(C#N)nc23)[C@@H](C)CN1C(c1ccc(F)cc1)c1cncc(F)c1 (single isomer, unassigned) [Example 386]",5.64,5.34,,
"C[C@@H]1CN(c2cc(=O)n(C)c3ccc(C#N)nc23)[C@@H](C)CN1C(c1ccc(F)cc1)C1CCOCC1 (single isomer, unassigned) [Example 388]",5.07,4.85,,
"C[C@@H]1CN(c2cc(=O)n(C)c3ccc(C#N)nc23)[C@@H](C)CN1C(c1ccc(Cl)cc1)c1ccncn1 (single isomer, unassigned) [Example 397]",5.74,4.80,,
"C[C@@H]1CN(c2cc(=O)n(C)c3ccc(C#N)nc23)[C@@H](C)CN1C(c1ccc(F)cc1)c1ccncn1 (single isomer, unassigned) [Example 402]",6.09,5.03,,
"CCC(c1ccc(F)c(F)c1)N1C[C@H](C)N(c2cc(=O)n(C)c3ccc(C#N)nc23)C[C@H]1C (single isomer, unassigned) [Example 411]",4.66,4.72,,

SMILES,pIC50 (human DGKα; liposome (LIPGLO) assay),pIC50 (human DGKζ; liposome (LIPGLO) assay),pIC50 (human DGKα; DGKα liposome (LIPGLO) assay),pIC50 (human DGKζ; DGKζ liposome (LIPGLO) assay)
"CC(c1ccc(C(F)(F)F)cc1F)N1C[C@H](C)N(c2cc(=O)n(C)c3ccc(C#N)nc23)C[C@H]1C (single isomer, unassigned) [Example 412]",4.92,4.89,,
"Cc1ncc(C(c2ccc(Cl)cc2)N2CCN(c3c(C#N)c(=O)n(C)c4ccc(C#N)nc34)C[C@H]2C)cn1 (single isomer, unassigned) [Example 413]",4.92,4.82,,
"C[C@@H]1CN(c2cc(=O)n(C)c3ccc(C#N)nc23)[C@@H](C)CN1C(c1ccc(Cl)cc1)c1ccc(F)c2c1OC(C)(C)C2 (single isomer, unassigned) [Example 459]",4.44,5.96,,
"Cc1c(F)ccc(C(C)N2C[C@H](C)N(c3cc(=O)n(C)c4ccc(C#N)nc34)C[C@H]2C)c1Cl (single isomer, unassigned) [Example 487]",4.39,4.96,,
"CC(c1c(F)cc(F)cc1F)N1C[C@H](C)N(c2cc(=O)n(C)c3ccc(C#N)nc23)C[C@H]1C (single isomer, unassigned) [Example 488]",4.82,4.96,,
"COCC(c1ccc(F)cc1)N1C[C@H](C)N(c2cc(=O)n(C)c3ccc(C#N)nc23)C[C@H]1C (single isomer, unassigned) [Example 560]",6.24,5.54,,
"C[C@@H]1CN(c2cc(=O)n(C)c3ccc(C#N)nc23)[C@@H](C)CN1Cc1ccc(OC(F)(F)F)cc1F (single isomer, unassigned) [Example 624]",6.18,4.62,,
"Cc1cc(C(C)N2C[C@H](C)N(c3cc(=O)n(C)c4ccc(C#N)nc34)C[C@H]2C)no1 (single isomer, unassigned) [Example 648]",6.23,5.41,,
"C[C@@H]1CN(c2cc(=O)n(C)c3ccc(C#N)nc23)[C@@H](C)CN1C(c1ccc(Cl)cc1)c1ccc2c(c1)OC(F)(F)O2 (single isomer, unassigned) [Example 656]",4.64,5.40,,
"C[C@@H]1CN(c2cc(=O)n(C)c3ccc(C#N)nc23)[C@@H](C)CN1C(c1ccc(F)cc1)c1ccccc1N1CCOCC1 (single isomer, unassigned) [Example 664]",< 3.60,5.35,,
"C[C@@H]1CN(c2cc(=O)n(C)c3ccc(C#N)nc23)[C@@H](C)CN1C(c1ccc(F)cc1)c1ccccc1N1CCOCC1 (single isomer, unassigned) [Example 665]",< 3.60,< 3.60,,
"C[C@@H]1CN(c2cc(=O)n(C)c3ccc(C#N)nc23)[C@@H](C)CN1C(c1ccc(F)cc1)c1cnccn1 (single isomer, unassigned) [Example 674]",6.40,5.37,,
"C[C@@H]1CN(c2cc(=O)n(C)c3ccc(C#N)nc23)[C@@H](C)CN1C(c1ccc(F)cc1)c1cnccn1 (single isomer, unassigned) [Example 675]",5.34,4.64,,
"C[C@@H]1CN(c2cc(=O)n(C)c3ccc(C#N)nc23)[C@@H](C)CN1C(c1ccc(F)cc1)c1cccc2ccnn12 (single isomer, unassigned) [Example 694]",6.08,6.92,,
"C[C@@H]1CN(c2cc(=O)n(C)c3ccc(C#N)nc23)[C@@H](C)CN1C(c1ccc(F)cc1)c1noc(C(C)(C)C)n1 (single isomer, unassigned) [Example 764]",,,7.29,6.28
"C[C@@H]1CN(c2cc(=O)n(C)c3ccc(C#N)nc23)[C@@H](C)CN1C(c1ccc(F)cc1)c1noc(C(C)(C)C)n1 (single isomer, unassigned) [Example 765]",,,6.21,6.89
CC[C@H]1CN(C(c2ccc(F)cc2)c2nc(C3CC3)no2)[C@H](CC)CN1c1cc(=O)n(C)c2ccc(C#N)nc12 (stereo partly drawn) [Example 1065],,7.51,,
C[C@@H]1CN(c2cc(=O)n(C)c3ccc(C#N)nc23)[C@@H](C)CN1Cc1cn(C)nn1 [Example 1435],3.80,,,
Cc1nnc(C(C)N2C[C@H](C)N(c3cc(=O)n(C)c4ccc(C#N)nc34)C[C@H]2C)o1 (stereo partly drawn) [Example 1437],3.82,,,
